Data set [1] concerns lymphocytic leukemia p338 tumor cells. Description: Effect on lymphocytic leukemia (life-prolonging effect). As to conditions: i.p., 24 hours after i.p. transplantation. The format is in vivo, CDF1 male mice. Here is the method: 1×10^6 lymphocytic leukemia p338 tumor cells were intraperitoneally transplanted into CDF1 male mice weighing 22 g (each group having 5 animals). 24 hours after the trans- plantation, 0.2 ml of a solution of UCT4-B in physiological saline or 0.2 ml of physiological saline (the control group) was intraperitoneally administered to the animals.
The results of the test are expressed in terms of T/C (%) calculated by dividing the average survival days of each test group (T) with that of the control group (C).

Data set [2] relates to Klebsiella pneumoniae ATCC 10031. Description: Antibacterial activity, agar dilution method (pH 7.0). The data set is classed as cell-based. As to conditions: ATCC10031, read-out: minimum growth inhibition concentration (MIC). From the text: (§1) The antibacterial activities of UCT4-B on four bacteria (i.e., Staphylococcus aureus, Enterococcus faecium, Bacillus subtilis, Klebsiella pneumoniae) were examined by the agar dilution method (pH 7.0)[refer to "Biseibutsu Jikken Manyuaru (Manual of The Microbial Experiments)" 80, Kodansha (1986)].
(§2) The results are shown in terms of the minimum growth inhibition concentration (MIC) in Table 2.
A general note: In agar dilution, organisms are placed on agar that contains the substance at set levels.

In data set [3] the test system is Bacillus subtilis ATCC 10707. Described as above. The data set is classed as cell-based. The note with it: ATCC10707, read-out: minimum growth inhibition concentration (MIC).
Excerpt: as §1, §2

The test system of data set [4] is Staphylococcus aureus ATCC 6538P. The description is as above. The data set is classed as cell-based. As to conditions: ATCC6538P, read-out: minimum growth inhibition concentration (MIC).
Excerpt: as §1, §2

Data set [5] deals with Enterococcus faecium ATCC 10541. Described as above. The data set is classed as cell-based. As to conditions: ATCC10541, read-out: minimum growth inhibition concentration (MIC).
Excerpt: as §1, §2

A short description of data set [6]: Acute toxicity, single intravenous administration, 14 days survival. The note with it: mouse, in vivo, ddy mice, single i.v., Behrens-Karber method. Here is the method:
UCT4-B was intravenously administered once to ddy mice weighing about 20 g (each group having 5 animals) and then the survival state of the animals was monitored for 14 days following the administration. Then LD50 of the compound was calculated based on the mortality of mice in each group in accordance with the Behrens-Karber method.

Values after ≈ are worked out from the molar mass of the structure shown.

In the case of `CC1C(O)C(=O)C2(C)C(CO)=CCCC2C1(C)CC(O)C1(C(=O)C=O)CO1` (stereo not shown) [UCT4-B], the “Life-prolonging effect (T/C %)” value in data set [1] (3 mg/kg) is reported as 124%; in data set [1] (6 mg/kg) it was 131%; in data set [1] (12 mg/kg), 127%; in data set [1] (25 mg/kg), 137%; in data set [1] (50 mg/kg), 141%. Moreover, the MIC in data set [2] was determined as 2.1 µg/mL (≈ 5.52 µM); in data set [3], 8.3 µg/mL (≈ 21.8 µM); in data set [4], 4.1 µg/mL (≈ 10.8 µM); in data set [5], 4.1 µg/mL (≈ 10.8 µM). In addition, the Solubility result in “Solubility” (acetonitrile) is listed as “soluble”; in “Solubility” (chloroform) it was “highly soluble”; in “Solubility” (ethyl acetate) it was “highly soluble”; in the data set “Solubility” (hexane) it was “insoluble”; in “Solubility” (methanol) it was “highly soluble”; in “Solubility” (water), “soluble”. In data set [6], the median lethal dose (LD50) (as a rule, the dose expected to kill half of the subjects tested) at 336 h was no less than 50 mg/kg.

The values above are taken from patent US5151352A, “Process for producing diterpene compounds” (Kyowa Hakko Kogyo Co., Ltd., priority 1990, dated 1992).
